According to US20060014987A1, “Synthesis of beta-elemene, intermediates thereto, analogues and uses thereof” (priority 2003, published 2006):
Converted amounts (≈) assume the structure as drawn.

What was measured:
[1] = system: SHG-44 Human Brain Glioma (Subcutaneous Inoculation); details: positive control, 30 mg/kg once a day for 7 days
SKOV3/CIS cells = details: cited from earlier work
MDR cell line CEM/ADM = test: MDR reversal, MTT method
CEM/ADM cells = test: Intracellular drug accumulation; details: verapamil at 7.5 ug/ml
human brain tumor, A-127 = test: MTT assay, anti tumor activities of derivatives; format: cell-based
[2] = system: G422 mice glioma (intracranial inoculation); test: Intracranial inoculation, survival; format: in vivo; details: positive control, i.p. 5 mg/kg once a day for 7 days
Experimental: Each experiment was repeated three times.
Intracranial inoculation: Scientists took aseptically G422 tumor from well-growing mice to prepare 2×10^7 cells/ml suspension by even protoplasm method. Mice were inoculated intracranially with 0.05 ml suspension. Treatment started the day after the inoculation. Animal survival time was recorded for 30 days.

[3] = system: recurrent anaplastic astrocytoma; details: cited from earlier work
liver cancer cell SMMC = details: Elemene at 20 ug/ml; cited from earlier work
[4] = 3H labeled, injected intravenously or taken orally; cited from earlier work
[5] = system: sensitive parental cell line CEM; test: IC50 and drug accumulation in the sensitive line
[6] = system: Human hepatic cancer BEL-7402 cell line; details: after 6 weeks of induction with Elemene at 48.9 ug/ml; cited from earlier work
tumor cells = details: in vitro; cited from earlier work
glioblastoma = details: after treatment with this drug; cited from earlier work
[7] = system: MDR1 mRNA in CEM.ADM cells; test: MDR1 mRNA by Rt-PCR

O=P1(N(CCCl)CCCl)NCCCO1 (stereo not shown) [CTX, cyclo-phosphate acylamine]
TIR Experiment 1 [1]: 83.16% | TIR Experiment 2 [1]: 88.54% | Tumor Weight (g) Experiment 1 [1]: 0.33 ± 0.10 g | Tumor Weight (g) Experiment 2 [1]: 0.22 ± 0.04 g | Tumor Weight (g) Experiment 3 [1]: 0.23 ± 0.05 g

COc1ccc(CCN(C)CCCC(C#N)(c2ccc(OC)c(OC)c2)C(C)C)cc1OC (stereo not shown) [verapamil]
enhancement of the sensitivity of SKOV3/CIS to doxorubicin (SKOV3/CIS cells): 260 fold | DMF of ADM (MDR cell line CEM/ADM; verapamil at 7.5 ug/ml): 2.02 | DMF of DAU (MDR cell line CEM/ADM; verapamil at 7.5 ug/ml): 2.13 | DMF of VCR (MDR cell line CEM/ADM; verapamil at 7.5 ug/ml): 1.95 | intracellular accumulations of ADM, DAU and VCR versus negative controls (CEM/ADM cells): about 2 times

C=C[C@]1(C)CC[C@@H](C(C)(O)CO)C[C@H]1C(=C)C (single isomer, unassigned) [LR1, (R or S)-2-((1R,3S,4S)-3-Isopropenyl-4-methyl-4-vinyl-cyclohexyl)-propane-1,2-diol]
IC50 (human brain tumor, A-127; 24 Hour): 176 µg/mL (≈ 739 µM) | IC50 (human brain tumor, A-127; 48 Hour): 163 µg/mL (≈ 685 µM) | IC50 (human brain tumor, A-127; 72 Hour): 133 µg/mL (≈ 558 µM)

COc1cc([C@@H]2c3cc4c(cc3[C@@H](O[C@@H]3O[C@@H]5CO[C@@H](c6cccs6)O[C@H]5[C@H](O)[C@H]3O)[C@H]3COC(=O)[C@H]23)OCO4)cc(OC)c1O [VM-26]
LPR Experiment 1 [2]: 183.24% | LPR Experiment 2 [2]: 168.75% | LPR Experiment 3 [2]: 171.2% | Mean Survival Time (Days) Experiment 1 [2]: 24.5 ± 6.0 days | Mean Survival Time (Days) Experiment 2 [2]: 25.8 ± 5.1 days | Mean Survival Time (Days) Experiment 3 [2]: 25.9 ± 4.7 days | animals alive at the end / at the beginning of the treatment (n/m) [2]: VM-26 (4/10)

Cn1nnc2c(C(N)=O)ncn2c1=O [TEMODAR, temozolomide]
CR+PR rate ([3]; brain tumor patients): 20% | complete responses ([3]; human, in vivo): 9% | overall tumor response rate ([3]; human, in vivo): 22% | partial responses ([3]; human, in vivo): 13%

C=C[C@]1(C)CC[C@@H](C(=C)C)C[C@H]1C(=C)C [beta-elemene, (−)-beta-elemene]
G0/G1 to S phase transition (liver cancer cell SMMC): blocked G0/G1 to S phase transition | passage of the blood brain barrier (BBB) [4]: Radioactivity was detected in animals' brain | effect on IC50 values and drug accumulations [5]: no effect | dose modifying factor (DMF) for DAU (MDR cell line CEM/ADM; beta-elemene at 3 ug/ml): 1.79 | dose modifying factor (DMF) for VCR (MDR cell line CEM/ADM; beta-elemene at 3 ug/ml): 1.60 | dose modifying factor (DMF) for ADM (MDR cell line CEM/ADM; beta-elemene at 3 ug/ml, IC50 without/with MDR modulator): 1.84 | expression of MDR1 mRNA or P-glycoprotein (P-gp) [6]: did not express MDR1 mRNA or P-glycoprotein (P-gp) | IC50 for tumor cells (tumor cells): 20 to 50 µg/mL | longest survival time of a glioblastoma patient (glioblastoma): 62 months | quantity of MDR1 mRNA [7]: no quantity change
